Measured values reported in patent publication US8993559B2, “Use of ibogamine congeners for treating obesity” (Albany Medical College, priority 2008, dated 2015).
Entries after “also recorded” stand apart in the source; their conditions may differ.

How the values were obtained:
Assay type in all cases: in vivo, rat
[1] = Weight gain of rats on high fat or low fat diet
Protocol: FIG. 12 is a graph showing effects of 18-MC (20 mg/kg i.p.) on weight gain of rats. Each data point represents daily weight (g, ±S.E.M.) of rats having access to high fat (HF) or low fat (LF) diet and water, and treated with 18-MC or vehicle. The black bar indicates the duration of treatment with 18-MC: =<0.05, 18-MC vs vehicle.
The development of obesity in rats maintained on a high fat diet is perhaps the commonly used animal model of diet-induced obesity.

Sprague-Dawley rats [2] = assay: Palatable liquid consumption, two-bottle paradigm (19-h sessions); settings: for water consumption: water/water control
Protocol: (§1) Naïve female Sprague-Dawley rats (230-270 g; Taconic, Germantown, N.Y.) were housed individually and maintained on a normal 12 hr light cycle (light on/off at 7 a.m./7 p.m.) in the colony room. For all experiments, food (normal chow) and water were provided ad libitum. The experiments were conducted in accordance with the “Guide for the Care and Use of Laboratory Animals” (National Academy of Sciences, 1996).
On the first day of the experiment, the regular cage tops were replaced with custom-made cage tops containing metal holders for two 100-ml graduated glass bottles (Lab Products Inc., Seaford, Del.); the bottles were placed approximately 2″ apart. Different groups of rats were allowed 19-h (3.30 p.m.-10.30 a.m.) unlimited access to water and 5% sucrose, water and 0.1% saccharine, water and 0.6% saline, or water and water. The concentrations were chosen in accordance with previous reports using similar two-bottle drinking paradigms. See Dess, N. K., Physiol Behav., 69: 247-257 (2000) and Warwick, Z. S. et al., Physiol Behav, 60: 711-715 (1996), which are hereby incorporated by reference in their entirety. The animals were maintained on a normal chow during these sessions. The bottles with palatable fluids were removed at the end of the 19-h sessions, but water and chow remained always available. The consumption of palatable fluids and water during the sessions were recorded on a daily basis for four consecutive sessions: two initial baseline sessions, one treatment session and one port-treatment session. The baseline consumption levels of fluids were established during the initial two sessions; immediately before the third session, animals were injected with 18-MC (10, 20, or 40 mg/kg i.p.) or vehicle. To account for possible side preferences of rats, the bottle sides were switched daily; animals expressing strong side preferences during the baseline sessions were excluded from further analysis. Each animal was used for four weeks, receiving three different dosages of 18-MC and vehicle in random order.
The average levels of fluid consumption (ml) during the first two sessions (baseline), as well as consumption during the post-injection session and the recovery session, were compared by two-way ANOVA using treatment and session as main factors; this analysis was followed by one-way ANOVAs for each treatment group and post-hoc tests when appropriate.

Sprague-Dawley rats [3] = assay: Operant sucrose self-administration procedure
Protocol: as §1
Rats were water deprived for 23 h so that shaping of the bar-press response could initially be accomplished by training rats to bar-press for water. Thereafter, in non-deprived rats, oral sucrose self-administration testing began with a 16-h nocturnal session followed by daily 1-h sessions, 5 days (Monday-Friday) a week. Rats were allowed access to two levers mounted 15 cm apart on the front wall of each operant test chamber (Coulbourn Instruments, Allentown, Pa.). A response on either of the two levers produced a sucrose reward (15% solution; 0.01 ml) on a FR1 TO 20 (fixed ratio 1 with a 20 sec time-out) schedule. After rates of sucrose self-administration stabilized (20% variation from one day to the next across 5 days), usually after 2 weeks of testing, 18-MC (10-40 mg/kg) or vehicle was administered i.p. 15 minutes before a test session. Each rat typically received two or three different treatments (in randomized order) spaced at least one week apart.
The operant self-administration data were analyzed by two-way ANOVA with reward (sucrose vs. water) and dose of 18-MC as the main factors. Subsequent post hoc tests (Newman-Keuls) compared the effects of 18-MC to baseline.

[4] = Weight gain paradigm: sucrose-drinking animals
Protocol: FIG. 11 is a graph showing effects of repeated administration of 18-MC (20 mg/kg i.p. for 14 days) on body fat depots (mean±SEM). *=p<0.05. On the seventh day after the last injection of 18-MC, animals were euthanized in CO2 chambers and decapitated. Necropsies were performed to remove periovarian, perirenal and inguinal fat pads.
Animals were maintained on a regular chow and water for the duration of experiment (three weeks). On the first day of experiment, animals received additional bottle containing 30% sucrose solution which remained available for the following three weeks; the bottle sides were switched daily. The body weights of rats were recorded daily for the following two weeks immediately prior administration of 18-MC (20 mg/kg, i.p.) or vehicle. After the last 18-MC injection, the weights were monitored for the additional week.
For the weight gain experiment, the data for all four treatment groups from days 1-21 were analyzed using two-way ANOVA, with treatment and time as main factors. Furthermore, the data for the first two weeks and the last week for water-vehicle, water-18-MC and sucrose 18-MC were analyzed separately using two-ANOVA, with treatment and time as main factors. Post-hoc comparison tests (Fisher LSD tests) were conducted when appropriate.

[5] = saccharin/water experiment, 10, 20 and 40 mg/kg i.p.
[6] = sucrose/water experiment, 10, 20 and 40 mg/kg i.p.

COCC[C@H]1CC2CN3CCc4c([nH]c5ccccc45)[C@](C(=O)OC)(C2)[C@H]13 [18-MC, 18-methoxycoronaridine]
excessive weight gain attributable to the high fat diet ([1]; 18-MC 20 mg/kg i.p. daily for two weeks, 45 kcal % fat): totally prevented | decrease of weights of fat depots in HF rats ([1]; 18-MC 20 mg/kg i.p. for two weeks, high fat diet): about 35% | decrease of weights of fat depots in LF rats ([1]; 18-MC 20 mg/kg i.p. for two weeks, low fat diet (10 kcal % fat)): not in LF rats | saccharin intake, recovery session (Sprague-Dawley rats [2]; 0.1% saccharin/water, 10 mg/kg i.p.): reduced intake | saccharin intake, post-injection session vs baseline (Sprague-Dawley rats [2]; 0.1% saccharin/water, 10, 20 and 40 mg/kg i.p.): significantly less | saline consumption vs baseline (Sprague-Dawley rats [2]; 0.6% saline/water, 10 mg/kg i.p.): remained unchanged | saline consumption vs baseline (Sprague-Dawley rats [2]; 0.6% saline/water, 20 and 40 mg/kg i.p., 19 h following injection): reduced | effect on saline consumption, recovery session (Sprague-Dawley rats [2]; 0.6% saline/water, highest dose (40 mg/kg i.p.)): also significant | sucrose intake, recovery session (Sprague-Dawley rats [2]; 5% sucrose/water, 10, 20 and 40 mg/kg i.p.): returned to baseline | sucrose consumption, post-injection session vs baseline (Sprague-Dawley rats [2]; 5% sucrose/water, 10, 20 and 40 mg/kg i.p., 19-h session): significantly reduced | selectivity for reducing consumption of sucrose and saccharin relative to water (Sprague-Dawley rats [2]; control water/water experiment vs two-bottle experiments): at least four-fold | ceiling effect dose, consumption of sucrose and saccharin (Sprague-Dawley rats [2]; dose range 10-40 mg/kg i.p.): 10 mg/kg | ceiling effect dose, saline consumption (Sprague-Dawley rats [2]; dose range 10-40 mg/kg i.p.): 20 mg/kg | effect on total fluid consumption, recovery session (Sprague-Dawley rats [2]; saccharin/water experiment, 10 mg/kg i.p.): remained significant | total fluid consumption (FIG. 3C), 19 h after injection (Sprague-Dawley rats [2]; [5]): reduced | water consumption across sessions (Sprague-Dawley rats [2]; [5]): not altered | total fluid consumption (Sprague-Dawley rats [2]; saline/water experiment, 10 mg/kg i.p.): remained unchanged | water consumption across sessions (Sprague-Dawley rats [2]; saline/water experiment, 10, 20 and 40 mg/kg i.p.): not different across sessions | total fluid consumption (Sprague-Dawley rats [2]; saline/water experiment, 20 and 40 mg/kg i.p.): significantly reduced | effect on total fluid consumption, recovery session (Sprague-Dawley rats [2]; saline/water experiment, highest dose (40 mg/kg i.p.)): also significant | total fluid consumption, post-injection session vs baseline (Sprague-Dawley rats [2]; [6]): reduced | water consumption across sessions (Sprague-Dawley rats [2]; [6]): remained stable | water consumption (Sprague-Dawley rats [2]; 40 mg/kg i.p.): significantly reduced | water consumption (Sprague-Dawley rats [2]; 10 and 20 mg/kg i.p.): remained unchanged | effect on sucrose responding (Sprague-Dawley rats [3]; 18-MC 20 mg/kg i.p., 10, 15 and 20% sucrose): no significant effect | decrease of sucrose responding (Sprague-Dawley rats [3]; 18-MC 20 mg/kg i.p., not significant): 10-20% | operant responding for sucrose (Sprague-Dawley rats [3]; 18-MC 40 mg/kg i.p., 15 min before 1-h session, 15% sucrose): reduced; also recorded: decreased | operant responding for water (Sprague-Dawley rats [3]; 18-MC up to 40 mg/kg i.p., water 0.01 ml/barpress): no effect | weights of fat depots ([4]; 18-MC 20 mg/kg i.p. for 14 days, periovarian, perirenal and inguinal fat pads): decreased | recovery of the weight gain after cessation of treatment ([4]; 18-MC-treated sucrose-drinking group): did not occur for another week | sucrose-induced (excessive) weight gain ([4]; 30% sucrose, 18-MC 20 mg/kg i.p. daily for two weeks): attenuated; also recorded: totally prevented | body weights vs vehicle-treated sucrose-drinking animals ([4]; 30% sucrose, 18-MC (40 mg/kg i.p.) as printed, all time points except the first): significantly lower
